Each structure is given as a SMILES string. Structures can show the parent of a compound that is named as a salt.

Data on two molecules can be found in patent publication US8697699B2, “Imidazopyrazine SYK inhibitors” (Gilead Connecticut, Inc., priority 2008, dated 2014).

For orientation: melting point means the temperature, or range, at which the solid turns liquid.

In turn, `COc1ccc(Nc2nc(-c3cccc(C(=O)Nc4ccc(C(=O)O)cc4C)c3)cn3ccnc23)cc1OC` (as salt: hydrochloride) [Example 2, 4-(3-(8-(3,4-dimethoxyphenylamino)imidazo[1,2-a]pyrazin-6-yl)benzamido)-3-methylbenzoic acid hydrochloride salt] returned a melting point of 188 to 215 °C. `COc1ccc(Nc2nc(-c3cccc(C(=O)Nc4ccc(C(=O)OCc5ccccc5)cc4)c3)cn3ccnc23)cc1OC` [Example 3, benzyl 4-(3-(8-(3,4-dimethoxyphenylamino)imidazo[1,2-a]pyrazin-6-yl)benzamido)benzoate] gave a melting point of 154 to 160 °C.
